Assay results as given in patent US7626031B2, “Substituted 3-(diarylmethylene)indolin-2-ones and methods of their use” (Symphony Evolution, Inc., priority 2002, dated 2009).

Legend:
[1] = biological target: Fyn (Homo sapiens, UniProt P06241); experiment: Kinase assay, Fyn; format: biochemical
Procedure: (§1) Kinase activity and compound inhibition are investigated using one or more assay formats. The ATP concentrations for each assay are selected to be close to the Michaelis-Menten constant (KM) for each individual kinase. Dose-response experiments are performed at 10 different inhibitor concentrations in a 384-well plate format. […] Exemplary kinase assays are described below. KDR Assay

[2] = biological target: EphA2 (Homo sapiens, UniProt P29317); experiment: Kinase assay, EphA2 (33P-ATP incorporation or luciferase-coupled ATP consumption); format: biochemical
Sequence of EphA2 (P29317 24-976, species assumed): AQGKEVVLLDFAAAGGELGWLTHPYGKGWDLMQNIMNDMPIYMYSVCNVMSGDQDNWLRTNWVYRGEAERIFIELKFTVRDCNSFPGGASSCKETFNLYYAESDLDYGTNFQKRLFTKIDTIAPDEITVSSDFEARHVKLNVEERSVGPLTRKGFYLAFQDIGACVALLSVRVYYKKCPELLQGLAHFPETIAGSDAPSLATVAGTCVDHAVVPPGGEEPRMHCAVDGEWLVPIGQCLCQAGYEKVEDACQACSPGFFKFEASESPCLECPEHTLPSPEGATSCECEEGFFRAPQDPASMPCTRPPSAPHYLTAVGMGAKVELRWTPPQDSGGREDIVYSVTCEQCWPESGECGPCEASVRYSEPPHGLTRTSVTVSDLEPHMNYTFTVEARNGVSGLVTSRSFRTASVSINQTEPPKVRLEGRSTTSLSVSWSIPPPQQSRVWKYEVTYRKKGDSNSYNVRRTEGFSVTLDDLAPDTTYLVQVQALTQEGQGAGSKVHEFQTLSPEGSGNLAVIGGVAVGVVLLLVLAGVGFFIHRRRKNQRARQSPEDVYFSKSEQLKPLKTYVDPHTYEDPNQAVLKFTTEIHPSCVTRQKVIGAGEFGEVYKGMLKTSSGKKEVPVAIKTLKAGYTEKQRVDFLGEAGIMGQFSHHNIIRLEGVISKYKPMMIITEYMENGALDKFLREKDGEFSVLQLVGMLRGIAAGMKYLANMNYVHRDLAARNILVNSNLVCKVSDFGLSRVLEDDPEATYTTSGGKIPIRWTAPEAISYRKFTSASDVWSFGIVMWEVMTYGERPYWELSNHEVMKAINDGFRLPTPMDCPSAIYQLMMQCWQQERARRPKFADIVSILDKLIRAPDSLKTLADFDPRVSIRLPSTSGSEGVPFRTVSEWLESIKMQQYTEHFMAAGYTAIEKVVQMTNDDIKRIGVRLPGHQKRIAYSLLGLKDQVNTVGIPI
Procedure: (§2) Kinase assays were performed by measurement of incorporation of γ-^33P ATP into immobilized myelin basic protein (MBP). […] Plates were washed 3× with 100 μl TBS. […] Compound dilutions were performed in DMSO and added to assay wells to a final DMSO concentration of 1%. Each data point was measured in duplicate, and at least two duplicate assays were performed for each individual compound determination. Enzyme was added to final concentrations of 10 nM or 20 nM, for example. A mixture of unlabeled ATP and γ-^33P ATP was added to start the reaction (2×10^6 cpm of γ-^33P ATP per well (3000 Ci/mmole) and either 10 μM or 30 μM unlabeled ATP, typically. The reactions were carried out for 1 hour at room temperature with shaking. Plates were washed 7× with TBS, followed by the addition of 50 μl/well scintillation fluid (Wallac). Plates were read using a Wallac Trilux counter. This is only one format of such assays, various other formats are possible, as known to one of ordinary skill in the art.
(§3) Tyrosine kinase activity is determined by 1) measurement of kinase-dependent ATP consumption by in the presence of a generic substrate such as, polyglutamic acid, tyrosine, 4:1 (pEY), by luciferase/luciferin-mediated chemiluminescence or; 2) incorporation of radioactive phosphate derived from ^33P-ATP into a generic substrate which has been adsorbed onto the well surface of polystyrene microtiter plates. Phosphorylated substrate products are quantified by scintillation spectrometry.
as §1

[3] = biological target: EGFR (Homo sapiens, UniProt P00533); experiment: Kinase assay, EGFR (33P-ATP incorporation or luciferase-coupled ATP consumption); format: biochemical
Sequence of EGFR (P00533 25-1210, species assumed): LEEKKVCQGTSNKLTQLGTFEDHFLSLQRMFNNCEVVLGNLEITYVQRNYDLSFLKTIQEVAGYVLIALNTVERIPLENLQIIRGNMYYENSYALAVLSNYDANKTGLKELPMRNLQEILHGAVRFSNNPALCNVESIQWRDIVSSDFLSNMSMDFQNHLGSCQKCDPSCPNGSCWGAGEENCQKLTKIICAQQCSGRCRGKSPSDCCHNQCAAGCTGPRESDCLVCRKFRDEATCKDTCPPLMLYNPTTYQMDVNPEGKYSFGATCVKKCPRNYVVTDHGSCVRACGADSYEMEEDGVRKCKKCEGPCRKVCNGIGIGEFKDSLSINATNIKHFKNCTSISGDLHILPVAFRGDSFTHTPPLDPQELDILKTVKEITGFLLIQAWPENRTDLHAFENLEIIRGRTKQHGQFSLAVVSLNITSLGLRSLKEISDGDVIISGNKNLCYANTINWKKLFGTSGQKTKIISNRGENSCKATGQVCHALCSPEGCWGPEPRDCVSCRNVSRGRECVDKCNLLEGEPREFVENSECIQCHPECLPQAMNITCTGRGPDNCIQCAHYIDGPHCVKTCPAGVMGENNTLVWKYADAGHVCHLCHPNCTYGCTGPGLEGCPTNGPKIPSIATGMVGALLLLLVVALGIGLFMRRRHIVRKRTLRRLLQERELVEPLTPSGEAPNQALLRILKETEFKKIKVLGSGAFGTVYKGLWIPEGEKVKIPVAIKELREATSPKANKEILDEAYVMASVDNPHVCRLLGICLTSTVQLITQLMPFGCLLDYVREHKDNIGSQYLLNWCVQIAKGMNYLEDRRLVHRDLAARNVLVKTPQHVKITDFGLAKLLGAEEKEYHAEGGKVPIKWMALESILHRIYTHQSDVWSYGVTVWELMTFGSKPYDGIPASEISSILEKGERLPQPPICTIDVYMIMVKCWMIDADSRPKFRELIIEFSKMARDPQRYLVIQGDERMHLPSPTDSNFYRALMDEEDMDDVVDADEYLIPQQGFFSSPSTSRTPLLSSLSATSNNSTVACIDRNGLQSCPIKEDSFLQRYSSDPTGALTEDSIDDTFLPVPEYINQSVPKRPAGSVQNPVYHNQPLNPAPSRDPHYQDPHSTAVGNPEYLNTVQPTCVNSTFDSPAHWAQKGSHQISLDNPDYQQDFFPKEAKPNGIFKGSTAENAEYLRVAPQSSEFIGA
Procedure: as §2, §3, §1

[4] = biological target: IRK (Homo sapiens, UniProt P06213); experiment: Kinase assay, IRK; format: biochemical
Procedure: as §1

[5] = biological target: T1, KDR (baculovirus expressed human KDR kinase domain D807-V1356) (Homo sapiens, UniProt P35968); experiment: biochemical
T1 construct: human KDR kinase domain D807-V1356; host or cells: baculovirus expression system
T1 sequence (P35968 807-1356): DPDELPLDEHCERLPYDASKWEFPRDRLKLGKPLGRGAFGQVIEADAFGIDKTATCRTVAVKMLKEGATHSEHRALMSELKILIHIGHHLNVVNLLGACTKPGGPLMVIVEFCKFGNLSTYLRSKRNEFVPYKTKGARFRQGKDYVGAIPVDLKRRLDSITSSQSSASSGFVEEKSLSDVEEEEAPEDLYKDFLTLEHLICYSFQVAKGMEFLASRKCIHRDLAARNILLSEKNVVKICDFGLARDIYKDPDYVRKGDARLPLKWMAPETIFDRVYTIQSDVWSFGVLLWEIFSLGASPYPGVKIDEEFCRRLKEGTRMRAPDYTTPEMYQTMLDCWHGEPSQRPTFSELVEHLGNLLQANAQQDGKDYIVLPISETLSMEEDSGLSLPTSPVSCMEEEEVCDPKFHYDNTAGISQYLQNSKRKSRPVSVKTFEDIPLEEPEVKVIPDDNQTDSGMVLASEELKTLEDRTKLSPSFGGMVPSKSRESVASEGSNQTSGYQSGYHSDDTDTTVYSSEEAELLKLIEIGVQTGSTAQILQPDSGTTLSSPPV
Procedure: as §1
KDR biochemical activity was assessed using a Luciferase-Coupled Chemiluminescent Kinase assay (LCCA) format. Kinase activity was measured as the percent ATP remaining following the kinase reaction. Remaining ATP was detected by luciferase-luciferin-coupled chemiluminescence. […] The mixture is incubated at ambient temperature for 4 hours after which 20 uL luciferase-luciferin mix is added and the chemiluminescent signal read using a Wallac Victor^2 reader.

[6] = biological target: FGFR1 (Homo sapiens, UniProt P11362); experiment: Kinase assay, FGFR1 (33P-ATP incorporation or luciferase-coupled ATP consumption); format: biochemical
Sequence of FGFR1 (P11362 22-822, species assumed): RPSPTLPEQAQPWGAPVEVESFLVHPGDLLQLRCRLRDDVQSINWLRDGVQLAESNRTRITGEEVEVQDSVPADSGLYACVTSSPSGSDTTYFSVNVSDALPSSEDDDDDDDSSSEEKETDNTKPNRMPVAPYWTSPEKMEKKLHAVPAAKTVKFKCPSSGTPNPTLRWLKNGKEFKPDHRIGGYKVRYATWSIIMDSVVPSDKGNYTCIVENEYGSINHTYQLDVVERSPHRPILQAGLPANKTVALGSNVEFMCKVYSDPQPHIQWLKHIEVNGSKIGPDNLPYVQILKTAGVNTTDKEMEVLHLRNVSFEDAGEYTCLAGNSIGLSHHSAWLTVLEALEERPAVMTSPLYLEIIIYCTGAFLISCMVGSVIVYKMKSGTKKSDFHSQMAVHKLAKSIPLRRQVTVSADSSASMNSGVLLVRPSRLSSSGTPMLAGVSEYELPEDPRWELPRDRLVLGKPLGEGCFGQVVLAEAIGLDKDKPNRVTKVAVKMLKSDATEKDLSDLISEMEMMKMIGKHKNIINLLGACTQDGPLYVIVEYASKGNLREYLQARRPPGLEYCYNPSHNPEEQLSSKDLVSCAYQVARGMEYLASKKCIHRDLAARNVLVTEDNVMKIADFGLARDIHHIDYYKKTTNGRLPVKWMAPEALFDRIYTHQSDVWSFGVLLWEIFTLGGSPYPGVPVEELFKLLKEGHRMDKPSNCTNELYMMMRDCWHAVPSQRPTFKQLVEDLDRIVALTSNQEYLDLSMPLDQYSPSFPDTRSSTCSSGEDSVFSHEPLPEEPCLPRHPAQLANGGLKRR
Procedure: as §2, §3, §1

[7] = biological target: PDGFR alpha (Homo sapiens, UniProt P16234); experiment: Kinase assay, PDGFR alpha (33P-ATP incorporation or luciferase-coupled ATP consumption); format: biochemical; conditions: read-out: PDGF-R-A IC50
Sequence of PDGFR alpha (P16234 24-1089): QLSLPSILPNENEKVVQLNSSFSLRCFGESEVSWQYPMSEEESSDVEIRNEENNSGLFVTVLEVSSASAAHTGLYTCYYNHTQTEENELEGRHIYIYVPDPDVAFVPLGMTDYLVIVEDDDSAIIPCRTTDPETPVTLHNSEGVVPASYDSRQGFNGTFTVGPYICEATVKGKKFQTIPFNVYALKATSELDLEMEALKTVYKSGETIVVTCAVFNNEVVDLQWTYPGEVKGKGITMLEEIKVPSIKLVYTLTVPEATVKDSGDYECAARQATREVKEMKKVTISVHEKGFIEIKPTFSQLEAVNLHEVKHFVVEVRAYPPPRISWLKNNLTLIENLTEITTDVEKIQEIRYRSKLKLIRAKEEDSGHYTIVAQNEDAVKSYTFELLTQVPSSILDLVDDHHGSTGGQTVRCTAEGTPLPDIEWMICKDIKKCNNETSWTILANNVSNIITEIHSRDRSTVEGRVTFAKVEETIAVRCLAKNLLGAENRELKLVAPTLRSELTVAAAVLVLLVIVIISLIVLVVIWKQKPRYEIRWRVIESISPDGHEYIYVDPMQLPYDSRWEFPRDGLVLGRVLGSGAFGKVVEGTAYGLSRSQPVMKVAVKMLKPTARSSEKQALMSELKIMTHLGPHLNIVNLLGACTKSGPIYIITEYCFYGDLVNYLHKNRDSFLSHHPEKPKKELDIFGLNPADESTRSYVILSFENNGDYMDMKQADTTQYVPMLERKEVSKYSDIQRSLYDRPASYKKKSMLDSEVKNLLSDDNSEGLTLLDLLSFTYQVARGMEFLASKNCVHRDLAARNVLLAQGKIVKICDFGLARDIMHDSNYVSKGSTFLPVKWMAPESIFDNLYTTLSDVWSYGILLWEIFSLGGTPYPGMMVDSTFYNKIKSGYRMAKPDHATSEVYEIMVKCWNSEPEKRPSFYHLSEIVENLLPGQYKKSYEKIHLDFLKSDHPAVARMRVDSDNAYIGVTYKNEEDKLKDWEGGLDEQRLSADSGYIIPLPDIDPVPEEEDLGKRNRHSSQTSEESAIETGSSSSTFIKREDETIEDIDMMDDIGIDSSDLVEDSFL
Procedure: as §2, §3, §1

Sequence of Fyn (P06241 whole entry, species assumed): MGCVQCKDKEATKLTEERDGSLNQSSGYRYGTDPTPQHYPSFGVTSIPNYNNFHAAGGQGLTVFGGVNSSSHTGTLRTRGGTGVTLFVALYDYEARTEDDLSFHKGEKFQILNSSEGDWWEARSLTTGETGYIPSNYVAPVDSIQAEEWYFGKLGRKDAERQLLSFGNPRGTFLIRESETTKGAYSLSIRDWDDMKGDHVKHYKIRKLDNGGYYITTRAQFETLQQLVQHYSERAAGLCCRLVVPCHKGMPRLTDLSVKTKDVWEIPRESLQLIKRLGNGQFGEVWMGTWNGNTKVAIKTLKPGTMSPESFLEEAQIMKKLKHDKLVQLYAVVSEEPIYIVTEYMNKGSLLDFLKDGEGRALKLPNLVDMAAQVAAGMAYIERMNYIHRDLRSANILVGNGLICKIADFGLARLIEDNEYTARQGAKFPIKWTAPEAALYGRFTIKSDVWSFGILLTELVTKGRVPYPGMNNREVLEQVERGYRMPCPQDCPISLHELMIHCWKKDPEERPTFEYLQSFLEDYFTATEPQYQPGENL

IC50 [1] [nM] | IC50 [2] [nM] | IC50 [3] [nM] | IC50 [4] [nM] | IC50 [5] [nM] | IC50 [6] [nM] | IC50 [7] [nM] | Compound
500 to 5000 | 500 to 5000 | 500 to 5000 | – | – | – | – | CCN1CCCC(Nc2ccc3c(c2)/C(=C(\c2ccccc2)c2nc4cc(OC)ccc4[nH]2)C(=O)N3)C1 (stereo not shown) [Entry 2, (3Z)-5-[(1-ethylpiperidin-3-yl)amino]-3-[[5-(methyloxy)-1H-benzimidazol-2-yl](phenyl)methylidene]-1,3-dihydro-2H-indol-2-one]
< 50 | 500 to 5000 | – | 500 to 5000 | < 50 | 50 to 500 | < 50 | CCN1CCC(Nc2ccc3c(c2)/C(=C(\c2ccc(F)c(C)c2)c2nc4ccccc4[nH]2)C(=O)N3)CC1 [Entry 52, (3Z)-3-[1H-benzimidazol-2-yl(4-fluoro-3-methylphenyl)methylidene]-5-{(1-ethylpiperidin-4-yl)amino]-1,3-dihydro-2H-indol-2-one]
< 50 | 500 to 5000 | – | 500 to 5000 | < 50 | 50 to 500 | < 50 | CCN1CCC(Nc2ccc3c(c2)/C(=C(\c2ccccc2)c2nc4cc(Cl)ccc4[nH]2)C(=O)N3)CC1 [Entry 55, (3Z)-3-[(5-chloro-1H-benzimidazol-2-yl)(phenyl)methylidene]-5-[(1-ethylpiperidin-4-yl)amino]-1,3-dihydro-2H-indol-2-one]
< 50 | 500 to 5000 | – | > 5000 | < 50 | 50 to 500 | < 50 | CCN1CCC(Nc2ccc3c(c2)/C(=C(\c2cc(F)cc(F)c2)c2nc4cc(Cl)ccc4[nH]2)C(=O)N3)CC1 [Entry 56, (3Z)-3-[(5-chloro-1H-benzimidazol-2-yl) (3,5-dilfuorophenyl)methylidene]-5-[(1-ethylpiperidin-4-yl)amino]-1,3-dihydro-2H-indol-2-one]
< 50 | 500 to 5000 | 50 to 500 | 500 to 5000 | < 50 | < 50 | < 50 | CCCc1ccc(/C(=C2/C(=O)Nc3ccc(NC4CCN(CC)CC4)cc32)c2ncc[nH]2)cc1 [Entry 59, (3Z)-5-[(1-ethylpiperidin-4-yl)amino]-3-[1H-imidazol-2-yl(4-propylphenyl)methylidene]-1,3-dihydro-2H-indol-2-one]
< 50 | > 5000 | > 5000 | > 5000 | < 50 | 50 to 500 | < 50 | CCN1CCC(Nc2ccc3c(c2)/C(=C(/c2cc(F)cc(F)c2)c2nc4cc(F)ccc4[nH]2)C(=O)N3)CC1 [Entry 61, (3E)-3-[(3,5-difluorophenyl)(5-fluoro-1H-benzimidazol-2-yl)methylidene]-5-[(1-ethylpiperidin-4-yl)amino]-1,3-dihydro-2H-indol-2-one]
< 50 | 500 to 5000 | 50 to 500 | > 5000 | < 50 | < 50 | < 50 | CCN1CCC(Nc2ccc3c(c2)/C(=C(\c2cc(F)cc(F)c2)c2nc4cc(F)ccc4[nH]2)C(=O)N3)CC1 [Entry 62, (3Z)-3-[(3,5-difluorophenyl)(5-fluoro-1H-benzimidazol-2-yl)methylidene]-5-[(1-ethylpiperidin-4-yl)amino]-1,3-dihydro-2H-indol-2-one]
< 50 | 50 to 500 | 50 to 500 | 500 to 5000 | < 50 | < 50 | < 50 | COCCN1CCC(Nc2ccc3c(c2)/C(=C(\c2ccc(C)c(F)c2)c2ncc[nH]2)C(=O)N3)CC1 [Entry 63, (3Z)-3-[(3-fluoro-4-methylphenyl)(1H-imidazol-2-yl)methylidene]-5-({1-[2-(methyloxy)ethyl]piperidin-4-yl}amino)-1,3-dihydro-2H-indol-2-one]
< 50 | 500 to 5000 | 50 to 500 | 500 to 5000 | < 50 | < 50 | – | CCN1CCC(Nc2ccc3c(c2)/C(=C(\c2cccc(F)c2)c2nc(-c4ccccc4)c[nH]2)C(=O)N3)CC1 [Entry 95, (3Z)-5-[(1-ethylpiperidin-4-yl)amino]-3-[(3-fluorophenyl)(4-phenyl-1H-imidazol-2-yl)methylidene]-1,3-dihydro-2H-indol-2-one]
> 5000 | > 5000 | > 5000 | > 5000 | 50 to 500 | 50 to 500 | – | CCN1CCC(Nc2ccc3c(c2)/C(=C(\c2cccc(F)c2)c2ncn[nH]2)C(=O)N3)CC1 [Entry 99, (3Z)-5-[(1-ethylpiperidin-4-yl)amino]-3-[(3-fluorophenyl)(1H-1,2,4-triazol-5-yl)methylidene]-1,3-dihydro-2H-indol-2-one]

The remaining lines, values behind:

Compound | IC50 [1] [nM] | IC50 [2] [nM] | IC50 [3] [nM] | IC50 [4] [nM] | IC50 [5] [nM] | IC50 [6] [nM] | IC50 [7] [nM]
CCN1CCC(Oc2ccc3c(c2)/C(=C(\c2ccccc2)c2nc4cc(OC)ccc4[nH]2)C(=O)N3)CC1 [Entry 14, (3Z)-5-[(1-ethytpiperidin-4-yl)oxy]-3-[[5-(methyloxy)-1H-benzimidazol-2-yl](phenyl)methylidene]-1,3-dihydro-2H-indol-2-one] | < 50 | 500 to 5000 | 500 to 5000 | 500 to 5000 | – | – | –
CCN1CCC(Nc2ccc3c(c2)/C(=C(\c2ccc(C(F)(F)F)nc2)c2ncc[nH]2)C(=O)N3)CC1 [Entry 68] | 50 to 500 | 500 to 5000 | > 5000 | > 5000 | 50 to 500 | 50 to 500 | < 50
COCCN1CCC(Nc2ccc3c(c2)/C(=C(\c2ccc(C)cc2)c2ncc[nH]2)C(=O)N3)CC1 [Entry 69] | < 50 | 50 to 500 | 50 to 500 | 500 to 5000 | < 50 | < 50 | < 50
CS(=O)(=O)N1CCC(Nc2ccc3c(c2)/C(=C(\c2cccc(F)c2)c2ncc[nH]2)C(=O)N3)CC1 [Entry 93, (3Z)-3-[(3-fluorophenyl)(1H-imidazol-2-yl)methylidene]-5-{[1-(methylsulfonyl)piperidin-4-yl]amino}-1,3-dihydro-2H-indol-2-one] | > 5000 | > 5000 | > 5000 | 500 to 5000 | 50 to 500 | 50 to 500 | –
CCCc1ccc(/C(=C2/C(=O)Nc3ccc(NC4CCN(CCOC)CC4)cc32)c2ncc[nH]2)cc1 [Entry 94, (3Z)-3-[1H-imidazol-2-yl(4-propylphenyl)methylidene]-5-({1-[2-(methyloxy)ethyl]piperidin-4-yl}amino)-1,3-dihydro-2H-indol-2-one] | < 50 | 500 to 5000 | 50 to 500 | 500 to 5000 | < 50 | < 50 | –
COCCN1CCC(Nc2ccc3c(c2)/C(=C(\c2cccc(F)c2)c2nc(-c4ccccc4)c[nH]2)C(=O)N3)CC1 [Entry 96, (3Z)-3-[(3-fluorophenyl)(4-phenyl-1H-imidazol-2-yl)methylidene]-5-({1-[2-(methyloxy)ethyl]piperidin-4-yl}amino)-1,3-dihydro-2H-indol-2-one] | < 50 | 500 to 5000 | 50 to 500 | 500 to 5000 | < 50 | < 50 | –
COCCN1CCC(Nc2ccc3c(c2)/C(=C(\c2ccc(C(F)(F)F)nc2)c2ncc[nH]2)C(=O)N3)CC1 [Entry 98] | 50 to 500 | 500 to 5000 | > 5000 | > 5000 | 50 to 500 | 50 to 500 | –
